Data reported in ChEMBL document CHEMBL3046397, “Synthesis and Insecticidal Activity of 4-1, 2, 4-Thiadiazolin-3-ones” (J Pestic Sci, 1994).

Key:
Spodoptera litura [1] = assay: Insecticidal activity against third-instar larvae of Spodoptera litura in compound treated sweet potato leaves assessed as mortality at 0.1 ppm at 25 degC, 65% RH measured after 5 days by leaf dipping method; format: functional; conditions: foliar, 120 h
Mythimna separata [2] = assay: Insecticidal activity against third-instar larvae Mythimna separata (Oriental armyworm) in compound treated maize leaves assessed as mortality at 0.1 ppm at 25 degC, 65% RH measured after 5 days by leaf dipping method; format: functional; conditions: foliar, 120 h
Spodoptera litura [3] = assay: Ovicidal activity against […] Spodoptera litura in paraffin paper assessed as egg mortality at 0.5 ppm at 25 degC, 65% RH measured after 7 days by egg dipping method; format: functional; conditions: 168 h
Spodoptera litura [4] = assay: Insecticidal activity against third-instar larvae of Spodoptera litura in compound treated sweet potato leaves assessed as mortality at 0.25 to 1 ppm at 25 degC, 65% RH measured after 5 days by leaf dipping method; format: functional
Spodoptera litura [5] = assay: Ovicidal activity against […] Spodoptera litura in paraffin paper assessed as egg mortality at 8 to 16 ppm at 25 degC, 65% RH measured after 7 days by egg dipping method; format: functional
Spodoptera litura [6] = assay: Ovicidal activity against […] Spodoptera litura in paraffin paper assessed as egg mortality at 31 to 125 ppm at 25 degC, 65% RH measured after 7 days by egg dipping method; format: functional
Spodoptera litura [7] = assay: Ovicidal activity against […] Spodoptera litura in paraffin paper assessed as egg mortality at 125 ppm at 25 degC, 65% RH measured after 7 days by egg dipping method; format: functional; conditions: 168 h
Spodoptera litura [8] = assay: Ovicidal activity against […] Spodoptera litura in paraffin paper assessed as egg mortality at 1 to 4 ppm at 25 degC, 65% RH measured after 7 days by egg dipping method; format: functional
Spodoptera litura [9] = assay: Insecticidal activity against third-instar larvae of Spodoptera litura in compound treated sweet potato leaves assessed as mortality at 2 to 4 ppm at 25 degC, 65% RH measured after 5 days by leaf dipping method; format: functional
Mythimna separata [10] = assay: Insecticidal activity against third-instar larvae Mythimna separata (Oriental armyworm) in compound treated maize leaves assessed as mortality at 0.25 to 1 ppm at 25 degC, 65% RH measured after 5 days by leaf dipping method; format: functional
Spodoptera litura [11] = assay: Insecticidal activity against third-instar larvae of Spodoptera litura in compound treated sweet potato leaves assessed as mortality at 31 ppm at 25 degC, 65% RH measured after 5 days by leaf dipping method; format: functional; conditions: foliar, 120 h
Mythimna separata [12] = assay: Insecticidal activity against third-instar larvae Mythimna separata (Oriental armyworm) in compound treated maize leaves assessed as mortality at 2 to 4 ppm at 25 degC, 65% RH measured after 5 days by leaf dipping method; format: functional
Mythimna separata [13] = assay: Insecticidal activity against third-instar larvae Mythimna separata (Oriental armyworm) in compound treated maize leaves assessed as mortality at 8 to 31 ppm at 25 degC, 65% RH measured after 5 days by leaf dipping method; format: functional
Spodoptera litura [14] = assay: Insecticidal activity against third-instar larvae of Spodoptera litura in compound treated sweet potato leaves assessed as mortality at 8 to 31 ppm at 25 degC, 65% RH measured after 5 days by leaf dipping method; format: functional
Mythimna separata [15] = assay: Insecticidal activity against third-instar larvae Mythimna separata (Oriental armyworm) in compound treated maize leaves assessed as mortality at 31 ppm at 25 degC, 65% RH measured after 5 days by leaf dipping method; format: functional; conditions: foliar, 120 h
[16] = Stability of the compound under natural condition at 25 degC for 24 hr; format: physicochemical
[17] = Metabolic stability in Spodoptera litura larvae feaces; format: ADME, organism-based; conditions: faeces, read-out: Drug recovery
Spodoptera litura [18] = assay: Metabolic stability in homogenized Spodoptera litura larvae; format: ADME, organism-based; conditions: in vivo

Structure (SMILES)	mortality at 0.1 ppm (Mythimna separata [2])	mortality (Spodoptera litura [5])	mortality at 125 ppm (Spodoptera litura [7])	mortality at 31 ppm (Spodoptera litura [11])	further results
O=C(NC(=O)c1c(F)cccc1F)Nc1cc(F)c(OC(F)(F)F)cc1F	> 90%				mortality at 0.1 ppm (Spodoptera litura [1]): > 90%; mortality at 0.5 ppm (Spodoptera litura [3]): > 90%
O=c1nc(-c2c(F)cccc2F)sn1-c1cc(F)c(OC(F)(F)F)cc1F	> 90%	>90%			mortality (Spodoptera litura [4]): >90%
O=c1nc(-c2c(F)cccc2F)sn1-c1ccc(OC(F)(F)F)c(F)c1Cl	> 90%				mortality at 0.1 ppm (Spodoptera litura [1]): > 90%; mortality (Spodoptera litura [6]): >90%
O=c1nc(-c2c(F)cccc2F)sn1-c1ccc(OC(F)(F)F)c(Cl)c1F	> 90%		< 90%		mortality (Spodoptera litura [4]): >90%
O=c1nc(-c2c(F)cccc2F)sn1-c1cc(Cl)c(OC(F)(F)F)cc1F	> 90%				mortality (Spodoptera litura [8]): >90%; mortality (Spodoptera litura [9]): >90%
O=c1nc(-c2c(F)cccc2F)sn1-c1cc(F)c(OC(F)(F)F)cc1Cl		>90%			mortality at 0.1 ppm (Spodoptera litura [1]): > 90%; mortality (Mythimna separata [10]): >90%
Cc1c(OC(F)(F)F)ccc(-n2sc(-c3c(F)cccc3F)nc2=O)c1F	> 90%	>90%			mortality (Spodoptera litura [4]): >90%
O=c1nc(-c2c(F)cccc2F)on1-c1ccc(Cl)cc1			< 90%		mortality (Mythimna separata [10]): >90%
O=c1nc(-c2c(Cl)cccc2Cl)on1-c1ccc(Cl)cc1			< 90%	< 90%	mortality (Mythimna separata [12]): >90%
O=c1nc(-c2c(F)cccc2F)on1-c1ccc(OC(F)(F)F)cc1		>90%		< 90%	mortality (Mythimna separata [12]): >90%
O=c1nc(-c2ccccc2Cl)on1-c1ccc(OC(F)(F)F)cc1			< 90%	< 90%	mortality (Mythimna separata [10]): >90%
Cc1ccccc1-c1nc(=O)n(-c2ccc(OC(F)(F)F)cc2)o1		>90%		< 90%	mortality (Mythimna separata [13]): >90%
O=c1nc(-c2c(F)cccc2F)on1-c1ccc(C(F)(F)F)cc1				< 90%	mortality (Mythimna separata [10]): >90%
O=c1nc(-c2c(F)cccc2F)on1-c1ccc(OC(F)(F)F)c(Cl)c1	> 90%		< 90%		mortality (Spodoptera litura [9]): >90%
O=C(NC(=O)c1c(F)cccc1F)Nc1ccc(OC(F)(F)F)c(F)c1F	> 90%				mortality at 0.1 ppm (Spodoptera litura [1]): > 90%; mortality at 0.5 ppm (Spodoptera litura [3]): > 90%
O=c1nc(-c2ccccc2Br)sn1-c1ccc(OC(F)(F)F)cc1		>90%			mortality (Spodoptera litura [14]): >90%; mortality (Mythimna separata [13]): >90%
O=c1nc(-c2ccccc2C(F)(F)F)sn1-c1ccc(OC(F)(F)F)cc1			< 90%	< 90%	mortality at 31 ppm (Mythimna separata [15]): < 90%
O=c1nc(-c2c(Cl)cccc2Cl)sn1-c1ccc(OC(F)(F)F)cc1			< 90%	< 90%	mortality (Mythimna separata [12]): >90%
O=c1nc(-c2c(F)cccc2Cl)sn1-c1ccc(OC(F)(F)F)cc1		>90%			mortality (Mythimna separata [10]): >90%
O=c1nc(-c2c(F)cccc2F)sn1-c1cc(Cl)c(F)c(Cl)c1F		>90%		< 90%	mortality at 31 ppm (Mythimna separata [15]): < 90%
O=c1nc(-c2c(F)cccc2F)sn1-c1cc(Cl)c(Oc2ncc(C(F)(F)F)cc2Cl)c(Cl)c1			< 90%	< 90%	mortality (Mythimna separata [10]): >90%
O=c1nc(-c2c(F)cccc2F)sn1-c1ccc(OC(F)(F)F)cc1Cl					mortality (Spodoptera litura [8]): >90%; mortality (Mythimna separata [13]): >90%; mortality (Spodoptera litura [9]): >90%

Structure (SMILES)	mortality at 0.1 ppm (Mythimna separata [2])	mortality (Spodoptera litura [5])	mortality at 125 ppm (Spodoptera litura [7])	mortality at 31 ppm (Spodoptera litura [11])	further results
O=c1nc(-c2c(F)cccc2F)sn1-c1ccc(OC(F)(F)F)c(Cl)c1	> 90%			< 90%	mortality (Spodoptera litura [6]): >90%
Cc1cc(OC(F)(F)F)ccc1-n1sc(-c2c(F)cccc2F)nc1=O	> 90%				mortality (Spodoptera litura [6]): >90%; mortality (Spodoptera litura [14]): >90%
Cc1cc(-n2sc(-c3c(F)cccc3F)nc2=O)ccc1OC(F)(F)F	> 90%				mortality (Spodoptera litura [6]): >90%; mortality (Spodoptera litura [9]): >90%
O=c1nc(-c2c(F)cccc2F)sn1-c1ccc(OC(F)(F)F)cc1F	> 90%	>90%			mortality (Spodoptera litura [4]): >90%
O=c1nc(-c2c(F)cccc2F)sn1-c1ccc(OC(F)(F)F)c(F)c1		>90%			mortality (Mythimna separata [10]): >90%; mortality (Spodoptera litura [9]): >90%
O=c1nc(-c2c(F)cccc2F)sn1-c1ccc(OC(F)(F)F)c(Cl)c1Cl			< 90%		mortality (Spodoptera litura [4]): >90%; mortality (Mythimna separata [10]): >90%
O=c1nc(-c2c(F)cccc2F)sn1-c1cc(Cl)c(OC(F)(F)F)cc1Cl			< 90%		mortality (Mythimna separata [10]): >90%; mortality (Spodoptera litura [9]): >90%
Cc1c(OC(F)(F)F)ccc(-n2sc(-c3c(F)cccc3F)nc2=O)c1C	> 90%		< 90%		mortality (Spodoptera litura [4]): >90%
Cc1cc(-n2sc(-c3c(F)cccc3F)nc2=O)c(C)cc1OC(F)(F)F	> 90%		< 90%		mortality (Spodoptera litura [9]): >90%
Cc1cc(-n2sc(-c3c(F)cccc3F)nc2=O)cc(C)c1OC(F)(F)F			< 90%		mortality (Mythimna separata [10]): >90%; mortality (Spodoptera litura [9]): >90%
O=c1nc(-c2c(F)cccc2F)sn1-c1ccc(OC(F)(F)F)c(F)c1F	> 90%	>90%			mortality at 0.1 ppm (Spodoptera litura [1]): > 90%
O=c1nc(-c2c(Cl)cccc2Cl)sn1-c1ccc(Cl)cc1			< 90%	< 90%	mortality (Mythimna separata [13]): >90%
O=c1nc(-c2ccccc2Cl)sn1-c1ccc(Cl)cc1			< 90%		mortality at 31 ppm (Mythimna separata [15]): < 90%
O=c1nc(-c2c(F)cccc2F)sn1-c1ccc(Cl)cc1			< 90%	< 90%	mortality (Mythimna separata [10]): >90%
O=c1nc(-c2c(F)cccc2F)sn1-c1ccc(C(F)(F)F)cc1	> 90%	>90%		< 90%	
O=c1nc(-c2c(F)cccc2F)sn1-c1ccc(OC(F)(F)F)cc1	> 90%	>90%			mortality (Spodoptera litura [14]): >90%
Cc1ccccc1-c1nc(=O)n(-c2ccc(OC(F)(F)F)cc2)s1		>90%		< 90%	mortality (Mythimna separata [12]): >90%
O=c1nc(-c2ccccc2F)sn1-c1ccc(OC(F)(F)F)cc1		>90%			mortality (Spodoptera litura [14]): >90%; mortality (Mythimna separata [12]): >90%
O=c1nc(-c2ccccc2Cl)sn1-c1ccc(OC(F)(F)F)cc1					Stability [16]: Stable; mortality (Spodoptera litura [14]): >90%; mortality (Spodoptera litura [8]): >90%; dose excreted [17]: 3.5%; Drug recovery (Spodoptera litura [18]): 10.4%; mortality (Mythimna separata [10]): >90%
O=C(NC(=O)c1c(F)cccc1F)Nc1ccc(Cl)cc1 [DIFLUBENZURON]	> 90%			< 90%	mortality (Spodoptera litura [8]): >90%
O=C(NC(=O)c1ccccc1Cl)Nc1ccc(OC(F)(F)F)cc1 [TRIFLUMURON]	> 90%				mortality (Spodoptera litura [14]): >90%; mortality at 0.5 ppm (Spodoptera litura [3]): > 90%
